Values after ≈ are worked out from the molar mass of the structure shown. Like-named read-outs stand apart in the source and are kept apart here. Square brackets hold non-standard residues; d marks the D form. Peptide text beside a SMILES is read from it.
Legend:
[1] = tested on: methicilin-resistant Staphylococcus aureus (MRSA) ATCC 700698; assay type: cell-based
Experimental: (§1) The antibacterial activity of the peptides was examined in sterile 96-well plates (Nunc F96 microtiter plates) in a final volume of 100 μl as follows: Aliquots (50 μl) of a suspension containing bacteria at concentration of 1×10^6 Colony-Forming Units (CFU)/ml in culture LB (Lauria broth) medium were added to 50 μl of water containing the peptide in serial 2-fold dilutions in water. Inhibition of growth was determined by measuring the absorbance at 600 nm with a Microplate autoreader E1309 (Bio-tek Instruments), after an incubation time of 18-20 h at 37° C. Antibacterial activities were expressed as the minimal inhibitory concentration (MIC), the concentration at which 100% inhibition of growth was observed after 18-20 h of incubation. The bacteria used were: Escherichia coli ATCC 25922, Acinetobacter baumannii ATCC 19606, Pseudomonas aeruginosa ATCC 27853, Staphylococcus aureus ATCC 6538P, Enterococcus faecalis ATCC 29212, Enterobacter cloacae ATCC 49141. The antibacterial activity of peptides 2 and 6 was also examined against resistant bacteria: methicilin-resistant Staphylococcus aureus ([…]) ATCC 700698 and vancomycin-resistant Enterococcus faecium (VRE) ATCC 700221.

[2] = tested on: vancomycin-resistant Enterococcus faecium (VRE) ATCC 700221; assay type: cell-based
Experimental: as §1

[3] = tested on: Aspergillus niger ATCC 9642; assay type: cell-based
Experimental: (§2) The antifungal activity of the diastereomers was examined in sterile 96-well plates (Nunc F96 microtiter plates) in a final volume of 200 μL as follows: 100 μl of a suspension containing fungi at concentration of 1×10^4 Colony-Forming Units (CFU)/ml in culture medium (RPMI 1640, 0.165 M MOPS pH 7.0, with L-glutamine, without NaHCO3) was added to 100 μl of water containing the peptide in serial 2-fold dilutions in water. The fungi were incubated in the presence of the diastereomeric peptides for 24-48 h at 35° C. in a Binder KB115 incubator under agitation. Growth inhibition was determined by measuring the absorbance at 620 nm with a Microplate autoreader E1309 (Bio-tek Instruments). Antifungal activity is expressed as the minimal inhibitory concentration (MIC), the concentration at which 100% inhibition of growth was observed after the incubation time mentioned above. The fungi used were: Aspergillus niger ATCC 9642, Candida albicans ATCC 10231 and Cryptococcus neoformans ATCC 66031.

[4] = tested on: Candida albicans ATCC 10231; assay type: cell-based
Experimental: as §2

[5] = tested on: Cryptococcus neoformans ATCC 66031; assay type: cell-based
Experimental: as §2

[6] = tested on: B16 F10 mouse melanoma cell line; assay: In vitro anticancer activity, Trypan blue cell viability, LC50
Experimental: (§3) The anticancer activity of the diastereomers 1, 2, 8, 9 and 10 was examined against B16 F10 mouse melanoma cell line. Melanoma cells were grown in RPMI-1640 medium supplemented with 10% fetal calf serum and antibiotics, at 37° C., in humidified atmosphere at 5% CO2 and 95% air. In addition, the cell-selectivity of the diastereomeric peptides was studied by examining their effect on NIH-3T3 normal fibroblasts cell line. NIH-3T3 mouse fibroblasts cells were grown in DMEM medium supplemented with 10% bovine calf serum and antibiotics under the same conditions as described above for B16 F10 mouse melanoma cells. Melanoma cells (2×10^5 cells ml^−1) or NIH-3T3 cells (2.5×10^5 cells ml^−1) were seeded in tissue culture plates (3.5 cm). After 48 h, cells were washed thrice with the corresponding medium. Then the cells were incubated at 37° C. in medium (without serum and antibiotics) in the presence of the tested diastereomeric peptides dissolved in PBS, at different concentrations. […] Following 24 h of incubation, the cells were harvested with trypsin (0.25%)-EDTA (0.05%) and centrifuiged for 10 min at 270×g. The precipitated cells were suspended in the corresponding medium and counted in a hemocytometer (Neubauer). Cell viability was determined by Trypan blue dye exclusion.

[7] = Cell selectivity, Trypan blue cell viability, LC50; assay type: cell-based, mouse; conditions: 50% cell mortality after 24 h incubation, medium without serum, read-out: Lethal Concentration (LC50), NIH-3T3 fibroblasts
[8] = molecular target: pepsin (from porcine stomach mucosa) (Sus scrofa, UniProt P00791); assay: in vitro; conditions: pig, pH 7.3
Chain of pepsin (from porcine stomach mucosa) (P00791 60-385): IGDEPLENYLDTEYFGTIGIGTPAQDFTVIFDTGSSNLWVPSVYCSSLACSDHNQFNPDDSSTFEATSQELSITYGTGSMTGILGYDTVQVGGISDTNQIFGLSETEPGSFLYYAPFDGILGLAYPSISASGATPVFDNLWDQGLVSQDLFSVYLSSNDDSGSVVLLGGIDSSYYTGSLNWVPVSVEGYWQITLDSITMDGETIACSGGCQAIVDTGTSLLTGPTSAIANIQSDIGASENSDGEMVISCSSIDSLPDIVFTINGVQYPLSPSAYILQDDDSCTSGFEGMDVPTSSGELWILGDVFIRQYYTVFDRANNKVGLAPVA
Experimental: (§4) In order to reach their target, the diastereomers have to withstand proteolytic digestion by proteases which may occur during the time of their administration site till they reach the target site. The susceptibility of the diastereomer 2 of the invention Is to proteolytic digestion by pepsin (from porcine stomach mucosa, Sigma), trypsin (from bovine pancreas, Sigma), and elastase (from human leukocytes, Sigma) was assessed by reverse-phase HPLC. As a control we used the native, all L-amino acid antimicrobial peptide cecropin B. Equal amounts of the peptides were dissolved in PBS (35 mM phosphate buffer/0.15 M NaCl, pH 7.3) at final concentration of 140 μM to which 25 μM of protease were added. The samples were incubated under agitation for 30 min at 37° C. After the addition of the appropriate protease inhibitor to stop the reaction, aliquots were injected to C18 column and the amounts of the intact diastereomers were evaluated using their absorbance at 215 nm.

[9] = molecular target: trypsin (from bovine pancreas) (Bos taurus, UniProt P00760); assay: in vitro; conditions: pH 7.3
Chain of trypsin (from bovine pancreas) (P00760 24-246): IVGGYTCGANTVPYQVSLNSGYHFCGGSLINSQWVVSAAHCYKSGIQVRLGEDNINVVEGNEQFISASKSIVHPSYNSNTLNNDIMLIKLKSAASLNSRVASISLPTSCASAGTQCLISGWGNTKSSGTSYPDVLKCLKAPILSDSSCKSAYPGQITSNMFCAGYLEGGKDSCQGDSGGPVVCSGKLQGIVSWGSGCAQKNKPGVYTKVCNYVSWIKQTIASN
Experimental: as §4

[10] = molecular target: T1, elastase (from human leukocytes) (Homo sapiens, UniProt P08246); assay: Proteolytic digestion assessed by reverse-phase HPLC; assay type: in vitro ADME
T1 construct: elastase (from human leukocytes, Sigma); purchased Sigma; host or cells: human leukocytes (cell-derived)
T1 sequence (P08246 30-247 limits assumed): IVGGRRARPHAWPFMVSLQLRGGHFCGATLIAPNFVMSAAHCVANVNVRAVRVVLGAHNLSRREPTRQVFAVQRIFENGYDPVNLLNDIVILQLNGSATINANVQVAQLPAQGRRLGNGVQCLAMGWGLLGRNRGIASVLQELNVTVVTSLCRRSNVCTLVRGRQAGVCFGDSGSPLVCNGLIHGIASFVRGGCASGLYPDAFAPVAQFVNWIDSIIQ

Mycoplasma pneumoniae = assay type: cell-based; conditions: 1 h
Experimental: In order to examine the activity of the diastereomers of the invention against mycoplasma, 500 μl of Mycoplasma pneumoniae cells were introduced into a cell culture flask containing 50 ml of SP-4 growth media (Jacob et al., 1985). The cells were grown at 37° C. for 3-4 days. Before the assay, the mycoplasma cells were washed 3 times with serum-free medium (without fetal calf serum) and then harvested into 5 ml of the same medium. The cells' concentration was adjusted to approximately 1×10^6 cells ml^−1. Thereafter, 150 μl of either diastereomer 1 or 2 in phosphate-buffered saline (PBS) were added to 150 μl mycoplasma cells. The mixture was incubated for 1 hour at room temperature. As a control, cells were incubated with PBS alone. At the end of the incubation period, 150 μl of the mixture were inoculated into tissue culture flasks (in duplicate) containing 15 ml SP-4 media. After 3-4 days, the mycoplasma viability was determined by counting the number of cells grown in each flask.

[11] = In vitro anticancer activity, Trypan blue cell viability, LC50
Experimental: as §3

Compound	Activity against resistant bacteria MRSA [1]	Activity against resistant bacteria VRE [2]	MIC, A. niger ATCC 9642 [3]	MIC, C. albicans ATCC 10231 [4]	MIC, C. neoformans ATCC 66031 [5]	Lethal Concentration (LC50), B16-F10 melanoma ([6]; 50% cell mortality after 24 h incubation, medium without serum)	CC50 at 24 h ([7]; mouse, NIH-3T3 fibroblasts)	metabolised at 0.5 h, 140 μM [8]	metabolised at 0.5 h, 140 μM [9]	metabolised at 0.5 h, 140 μM ([10]; isolated enzyme elastase, pH 7.3)	MIC against Mycoplasma (Mycoplasma pneumoniae)	Activity against A. niger [3]	Activity against C. albicans [4]	CC50 [11]	Selectivity between melanoma and NIH-3T3 cell lines ([6]; B16 F10 vs NIH-3T3)	CC50 [7]	metabolised at 0.5 h, 140 μM ([10]; elastase from human leukocytes, 140 μM peptide, 25 μM protease, 30 min at 37° C., PBS pH 7.3, read-out: Proteolytic digestion, Elastase)
CC(C)C[C@H](NC(=O)[C@H](CC(C)C)NC(=O)[C@@H](CCCCN)NC(=O)[C@@H](CCCCN)NC(=O)[C@H](CC(C)C)NC(=O)[C@@H](CC(C)C)NC(=O)[C@H](CCCNC(=N)N)NC(=O)[C@H](CC(C)C)NC(=O)[C@@H](CC(C)C)NC(=O)[C@H](CC(C)C)NC(=O)[C@@H](N)CCCCN)C(=O)N[C@@H](CCCNC(=N)N)C(=O)N[C@H](CC(C)C)C(=O)N[C@@H](CC(C)C)C(=O)N[C@@H](CCCCN)C(N)=O [Peptide 6, [D]-L^3,6,13,K^8,9-K4R2L9] (H-KL[dL]LR[dL]L[dK][dK]LLR[dL]LK-NH2; N-terminus assumed)	highly active	highly active	200 µg/mL (≈ 107 µM)	150 µg/mL (≈ 80.6 µM)	1.5 µg/mL (≈ 0.806 µM)	–	–	–	–	–	–	–	–	–	–	–	–
CC(C)C[C@H](NC(=O)[C@H](CCCCN)NC(=O)[C@H](CC(C)C)NC(=O)[C@@H](CC(C)C)NC(=O)[C@H](CC(C)C)NC(=O)[C@@H](N)CCCCN)C(=O)N[C@@H](CC(C)C)C(=O)N[C@H](CCCCN)C(=O)N[C@H](CCCCN)C(=O)N[C@@H](CC(C)C)C(=O)N[C@@H](CC(C)C)C(=O)N[C@@H](CCCCN)C(=O)N[C@H](CC(C)C)C(=O)N[C@@H](CC(C)C)C(=O)N[C@@H](CCCCN)C(N)=O [Peptide 2, [D]-L^3,13,K^8,9-K6L9] (H-KL[dL]LKLL[dK][dK]LLK[dL]LK-NH2)	–	–	50 µg/mL (≈ 27.7 µM)	100 µg/mL (≈ 55.4 µM)	1.4 µg/mL (≈ 0.776 µM)	9 µg/mL	30 µg/mL (≈ 16.6 µM)	10%	32%	6%	12.5 µg/mL (≈ 6.93 µM)	–	–	–	–	–	–
CC(C)C[C@H](NC(=O)[C@H](CCCCN)NC(=O)[C@@H](CC(C)C)NC(=O)[C@@H](CC(C)C)NC(=O)[C@H](CC(C)C)NC(=O)[C@@H](N)CCCCN)C(=O)N[C@@H](CC(C)C)C(=O)N[C@H](CC(C)C)C(=O)N[C@@H](CCCCN)C(=O)N[C@H](CC(C)C)C(=O)N[C@@H](CC(C)C)C(=O)N[C@@H](CCCCN)C(N)=O [Peptide 1, [D]-L^3,4,8,10-K4L8, reference compound] (H-KL[dL][dL]KLL[dL]K[dL]LK-NH2; N-terminus assumed)	–	–	>200 µg/mL	>200 µg/mL	4.7 µg/mL (≈ 3.28 µM)	–	–	–	–	–	50 µg/mL (≈ 34.8 µM)	inactive	inactive	90 µg/mL (≈ 62.7 µM)	active against both cell lines at similar concentration	100 µg/mL (≈ 69.7 µM)	–
CC[C@H](C)[C@H](NC(=O)CNC(=O)[C@H](CC(N)=O)NC(=O)[C@H](CCCNC(=N)N)NC(=O)[C@@H](NC(=O)[C@H](CC(N)=O)NC(=O)[C@H](CCCNC(=N)N)NC(=O)CNC(=O)[C@H](CCSC)NC(=O)[C@H](CCCCN)NC(=O)[C@H](CCC(=O)O)NC(=O)[C@@H](NC(=O)[C@H](CCCCN)NC(=O)[C@H](CCCCN)NC(=O)[C@H](Cc1ccccc1)NC(=O)[C@@H](NC(=O)[C@H](CCCCN)NC(=O)[C@H](Cc1c[nH]c2ccccc12)NC(=O)[C@@H](N)CCCCN)C(C)C)[C@@H](C)CC)[C@@H](C)CC)C(=O)N[C@H](C(=O)N[C@@H](CCCCN)C(=O)N[C@@H](C)C(=O)NCC(=O)N1CCC[C@H]1C(=O)N[C@@H](C)C(=O)N[C@H](C(=O)N[C@@H](C)C(=O)N[C@H](C(=O)N[C@@H](CC(C)C)C(=O)NCC(=O)N[C@@H](CCC(=O)O)C(=O)N[C@@H](C)C(=O)N[C@@H](CCCCN)C(=O)N[C@@H](C)C(=O)N[C@@H](CC(C)C)C(N)=O)C(C)C)[C@@H](C)CC)C(C)C [Cecropin B, cecropin B, reference compound] (H-KWKVFKKIEKMGRNIRNGIVKAGPAIAVLGEAKAL-NH2)	–	–	–	–	–	–	–	100%	100%	–	–	–	–	–	–	–	100%

Reference: patent US20040053847A1, “Diastereomeric peptitdes and pharmaceutical compositions comprising them” (priority 2000, published 2004)
